{
  "source": "paper PMC6278378",
  "about": "“Virtual Screening, Biological Evaluation, and 3D-QSAR Studies of New HIV-1 Entry Inhibitors That Function via the CD4 Primary Receptor” (Molecules, 2018)",
  "key": {"[1]": {"target": "T1, CD4 (Homo sapiens, UniProt P01730)", "T1 construct": "endogenous in cells; host or cells: SUP-T1 cells", "assay": "CD4 competitive binding assay (FITC anti-human CD4 antibody, SUP-T1 cells)", "procedure": "We chose CD4-expressing SUP-T1 cells to perform the competitive CD4 binding assay. Non-labeled anti-human CD4 antibody (RPA-T4 clone, BioLegend, San Diego, CA, USA) was used as a positive control.\nThe SUP-T1 cells were cultured in RPMI1640 medium supplemented with 10% (v/v) fetal bovine serum (FBS), 100 IU penicillin, 0.1 mg/mL streptomycin, and 2 mM L-glutamine. After collecting and washing twice with fluorescence activated cell sorting (FACS) buffer (0.5% BSA, 0.05% sodium azide in PBS) by centrifugation, SUP-T1 cells were seeded in a 96-well v-bottom plate at 5 × 10^5 cells/well. The supernatant was discarded by centrifugation and the cell pellet was resuspended with 50 μL various 2× concentrations of test compounds and 50 μL fluorescein isothiocyanate (FITC) labeled anti-human CD4 antibody (RPA-T4 clone, BioLegend, San Diego, CA, USA). The plate was incubated for 40 min on ice. After incubation, the cells were washed twice with FACS buffer by centrifugation, and then resuspended with the assay buffer. The FACS buffer was added at a volume of 50 μL per well. The fluorescence (485EX/528EM) was recorded using a Synergy II plate reader (BioTek Instruments, Inc., Winooski, VT, USA). Experimental data were generated in duplicate each time, and from at least three independent experiments. The mean values of fluorescence were normalized and expressed as a percentage of the control group values. Binding curves and IC50 values were calculated by GraphPad Prism 7 (GraphPad Software Inc., La Jolla, CA, USA) and presented as the mean ± SEM."}, "[2]": {"system": "SUP-T1 cells", "assay": "SUP-T1 cell viability assay", "assay_type": "cell-based", "details": "up to 200 μM", "procedure": "We also performed a cell viability assay to test the potential cytotoxicity of 3. In parallel with the competitive CD4 binding assay described above, the same densities of SUP-T1 cells were seeded and treated with the test compounds for the same duration."}, "[3]": {"system": "HIV-1 (NL4-3 strain)", "assay": "microbe, parasite or virus in culture", "assay_type": "cell-based", "details": "Human immunodeficiency virus 1, NL43, PBMC; PBMCs, HIV-1 NL4-3, 24 h; read-out: IC50, HIV-1 entry inhibition (intracellular p24)", "procedure": "We also performed anti-HIV-1 entry assays to investigate the potential suppression by 3 of HIV-1 infection via its entry mechanism.\nThe Anti-HIV-1 entry assay was performed by measuring intercellular p24 antigen. Before the infection, PBMCs (2.5 × 10^6 cells/mL) were added into 96-well plates at 100 μL/well, then co-incubated with compounds of various concentrations for 2 h. PBMCs were then washed twice with PBS and infected with the NL4-3 strain of HIV-1 at an MOI of 0.02 for 2 h at 37 °C with 5% CO2 (CO2 incubator, Eppendorf, Hamburg, Germany). After two washes with PBS (1200 rpm, 20 °C, 5 min), the cells were re-suspended in 100 µL complete medium and incubated for 24 h. Subsequently, the PBMCs were washed and resuspended in 100 µL/well lysis buffer containing 1% protease inhibitor cocktail (Sigma-Aldrich, St. Louis, MO, USA). The intercellular p24 antigen was measured according to the protocol provided with the HIV-1 ELISA kit (PerkinElmer Inc. Waltham, MA, USA)."}, "[4]": {"system": "various cancer cell lines", "set-up": "method as in PMID 26474275, PMID 22524450", "details": "100 μM; by increasing intracellular ROS level; cited from earlier work"}, "[5]": {"system": "HIV-1", "set-up": "method as in PMID 12207905", "details": "inactive or weakly active; cited from earlier work"}, "[6]": {"system": "HIV-1 NL4-3 strain", "assay": "Anti-HIV-1 infection assay (CEM-GFP reporter cells, GFP fluorescence)", "assay_type": "cell-based", "details": "Human immunodeficiency virus 1, NL43, HIV-1 NL4-3, 4-5 days", "excerpt": "We performed anti-HIV-1 infection and anti-HIV-1 entry assays by measuring GFP expression and intracellular p24 antigen level. For the anti-HIV-1 infection assays, the CEM-GFP reporter cell line was used, and HIV-1 infection induced a 10- to 1000-fold increase in the relative fluorescence of the cells.\nThe CEM-GFP cells were obtained from the NIH AIDS program (NIH AIDS Reagent Program, Division of AIDS, NIAID, NIH: CEM-GFP Cells from Dr. Jacques Corbeil) and cultured in RPMI 1640 medium containing 10% FBS, 1% penicillin-streptomycin (Life Technologies, Carlsbad, CA, USA), 1% 200 mM L-glutamine (Mediatech-VWR, Aurora, CO, USA), and 500 µg/mL G418 (BioPioneer Inc, San Diego, CA, USA). After collecting and counting, the CEM-GFP cells were infected with HIV-1 NL4-3 strain (MOI 0.01) at 37 °C for 2–3 h, cells were then washed twice with PBS, and 10^5 cells/well were seeded into a 96-well plate in the presence of different concentrations of test compounds. After culturing at 37 °C with 5% CO2 for 4 or 5 days, the GFP fluorescence (485EX/528EM) was measured using a Synergy II microplate reader (BioTek Instruments, Inc., Winooski, VT, USA)."}, "[7]": {"system": "PBMCs", "assay": "PBMC viability assay (CellTiter-Blue)", "assay_type": "cell-based", "details": "up to 150 μM", "procedure": "We employed a cell viability assay to test the potential cytotoxicity of 3. In parallel with the anti-HIV-1 assay described above, the same densities of PBMCs were seeded and treated with the test compounds for the same duration.\nBlood samples were collected from healthy donors and diluted with an equal amount of 1× PBS. Approximately 15 mL Ficoll was transferred to a sterile 50 mL tube, and then overlaid with 15 mL diluted blood. After centrifugation (Centrifuge 5810R, Eppendorf, Hamburg, Germany) at 1800 rpm for 30 min at room temperature, the PBMCs were obtained and washed twice with 40 mL 1× PBS by centrifugation (1100 rpm, 10 min for each time) at room temperature. Cell pellets were resuspended in 50 mL RPMI 1640 supplemented with 10% FBS and 100 μg/mL Phytohemagglutinin (PHA, Sigma-Aldrich, St. Louis, MO, USA) and cultured for 24 h at 37 °C with 5% CO2. […]\nIn addition to the anti-HIV assays described above, the same numbers of PBMCs were seeded and treated with the test compounds for the same periods. After a 24 h incubation at 37 °C, the cell viability was determined using the CellTiter-Blue (Promega Co., Madison, WI, USA) cell viability assay. The fluorescence (560EX/590EM) was recorded using a Synergy II microplate reader."}},
  "note": "Entries after “also recorded” stand apart in the source; their conditions may differ.",
  "data": [
    {"smiles": "O=C(O)CCc1c2ccc(=O)c(O)c-2oc2c(O)c(O)ccc12", "note": "[Compound 3, 3-(4,5,6-trihydroxy-3-oxo-3H-xanthen-9-yl) propanoic acid]", "values": [
      {"measurement": "inhibition at 100 µM", "setting": "[1]; 100 μM, inhibition of anti-human CD4 antibody binding to SUP-T1 cells", "result": 94.9, "unit": "%"},
      {"measurement": "IC50", "setting": "[1]; SUP-T1 cells, anti-human CD4 antibody competition", "result": 45, "unit": "µM"},
      {"measurement": "PInhibition (Experimental Data)", "setting": "[1]; transformed from % inhibition at 100 μM, presented as -ln", "result": 5.273},
      {"measurement": "Cytotoxicity in SUP-T1 cell viability assay", "setting": "[2]", "result": "no cytotoxicity"},
      {"measurement": "Cytotoxicity in SUP-T1 cell viability assay", "setting": "[2]; listed as NSC119915", "result": "not showing any cytotoxicity"},
      {"measurement": "IC50", "setting": "[3]", "result": 9, "unit": "µM"},
      {"measurement": "growth inhibition of cancer cell lines", "setting": "[4]", "result": "inhibit the growth"},
      {"measurement": "protection in anti-HIV-1 infection assay", "setting": "[5]", "result": "0–49%"},
      {"measurement": "IC50", "setting": "[6]", "result": 10, "unit": "µM"},
      {"measurement": "Cytotoxicity in PBMCs", "setting": "[7]", "result": "without a cytotoxicity effect; also recorded: no cytotoxicity; also recorded: did not show an ability to affect cell growth"}
    ]}
  ]
}
